Our source for the MIC and IC50 values is ChEMBL document CHEMBL1146662, “Novel inhibitors of bacterial protein synthesis: structure-activity relationships for 1,8-naphthyridine derivatives incorporating position 3 and 4 variants” (Bioorg Med Chem Lett, 2004).

As usually defined, the IC50 is the point on the concentration scale where inhibition reaches its midpoint.

Converted amounts (≈) assume the structure as drawn.

One assay has as its system Escherichia coli. Kind of assay: Antibacterial activity against Escherichia coli in presence of permeabilizer and EDTA. Type of assay: functional.
`NCCNc1ccnc2nc(N3CCCC3)c(F)cc12`: the MIC amounted to 32 µg/mL.

The subject of another assay is Escherichia coli. In words: Antibacterial activity against Escherichia coli. Type of assay: functional.
For `NCCNc1ccnc2nc(N3CCCC3)c(F)cc12`, the MIC was > 128 µg/mL.

Another assay concerns Haemophilus influenzae. In words: Antibacterial activity against Haemophilus influenzae GYR 1435. It is filed as functional.
For `O=C(O)c1cnc2nc(N3CCCC3)c(F)cc2c1O`, the MIC was found to be 1 µg/mL (≈ 3.61 µM). As for `C[C@H]1COc2c(N3CCN(C)CC3)c(F)cc3c(=O)c(C(=O)O)cn1c23.C[C@H]1COc2c(N3CCN(C)CC3)c(F)cc3c(=O)c(C(=O)O)cn1c23.O` [LEVOFLOXACIN], the MIC was 0.015 µg/mL. On the same count and under the same terms, as for `NC1CCN(c2nc3ncc(C(=O)O)c(O)c3cc2F)C1` (configuration not stated), the figure is 4 µg/mL (≈ 13.7 µM).

Another assay concerns Streptococcus pneumoniae. Kind of assay: Antibacterial activity against Quinolone-resistant Streptococcus pneumoniae 7257. It is filed as functional.
In the case of `O=C(O)c1cnc2nc(N3CCCC3)c(F)cc2c1O`, the MIC amounted to 4 µg/mL (≈ 14.4 µM). The same measure, in the same setting: as for `NC1CCN(c2nc3ncc(C(=O)O)c(O)c3cc2F)C1` (configuration not stated), the figure is 32 µg/mL (≈ 109 µM).

Biological target in another assay: not listed separately
Kind of assay: Inhibitory concentration against luciferase synthesis in Streptococcus pneumoniae. Type of assay: functional.
Regarding `Oc1ccnc2nc(N3CCCC3)c(F)cc12`, the half-inhibitory concentration (IC50) is > 100 µM. Compound `O=C(O)c1cnc2nc(N3CCCC3)c(F)cc2c1O` returned an IC50 of 10 µM.

As for `NC(=O)c1cnc2nc(N3CCC(N)C3)c(F)cc2c1O` (configuration not stated), half-maximal inhibition (IC50) required 23 µM. Regarding `NCCNc1ccnc2nc(N3CCCC3)c(F)cc12`, inhibition was half-maximal at 11 µM (IC50). On the same count and under the same terms, as for `OCc1cnc2nc(N3CCCC3)c(F)cc2c1O`, the figure is > 100 µM; as for `NC1CCN(c2nc3ncc(CNCCCc4ccccc4)c(O)c3cc2F)C1` (configuration not stated), 10 µM; as for `NNc1ccnc2nc(N3CCCC3)c(F)cc12`, 89 µM. Still for that read-out and setting: as for `O=C(O)CNc1ccnc2nc(N3CCCC3)c(F)cc12`, the figure is > 100 µM. Same read-out and setting: as for `NC1CCN(c2nc3ncc(CNCc4ccccc4)c(O)c3cc2F)C1` (configuration not stated), the figure is 25 µM; as for `O=Cc1cnc2nc(N3CCCC3)c(F)cc2c1O`, > 100 µM; as for `CC(Nc1ccnc2nc(N3CCCC3)c(F)cc12)c1ccccc1` (configuration not stated), > 100 µM.

For the compound `CC(C)CCNC(=O)c1cnc2nc(N3CCC(N)C3)c(F)cc2c1O` (configuration not stated), inhibition was half-maximal at 25 µM (IC50). Still for that read-out and setting: as for `NC(=O)CNc1ccnc2nc(N3CCCC3)c(F)cc12`, the figure is 82 µM; as for `CN(C)CCN(C)c1ccnc2nc(N3CCCC3)c(F)cc12`, 18 µM; as for `Oc1c(CNCc2ccccc2)cnc2nc(N3CCCC3)c(F)cc12`, > 100 µM.

`COCCNc1ccnc2nc(N3CCCC3)c(F)cc12` came in with an IC50 of 39 µM. This lies in the double-digit micromolar range. For the compound `CC(C)CCN(C)C(=O)c1cnc2nc(N3CCC(N)C3)c(F)cc2c1O` (configuration not stated), the half-inhibitory concentration (IC50) was > 100 µM. Same read-out and setting: as for `CC(C)NC(=O)c1cnc2nc(N3CCC(N)C3)c(F)cc2c1O` (configuration not stated), the figure is > 100 µM; as for `CN(C)CCNCc1cnc2nc(N3CCCC3)c(F)cc2c1O`, > 100 µM; as for `O=C(NO)c1cnc2nc(N3CCCC3)c(F)cc2c1O`, > 100 µM.

For the compound `CCOC(=O)c1cnc2nc(N3CCCC3)c(F)cc2c1O`, the half-maximal inhibitory concentration (IC50) was > 100 µM. On the same count and under the same terms, as for `Oc1c(CNc2ccccc2)cnc2nc(N3CCCC3)c(F)cc12`, the figure is > 100 µM. `NC1CCN(c2nc3ncc(CNc4ccccc4)c(O)c3cc2F)C1` (configuration not stated) registered an IC50 of 54 µM. In other words, the double-digit micromolar range. On the same count and under the same terms, as for `CCCNc1ccnc2nc(N3CCCC3)c(F)cc12`, the figure is 19 µM.

For `CCN(CC)CCCNCc1cnc2nc(N3CCC(N)C3)c(F)cc2c1O` (configuration not stated), half-maximal inhibition (IC50) required 10 µM. Still for that read-out and setting: as for `NC1CCN(c2nc3ncc(C(=O)O)c(O)c3cc2F)C1` (configuration not stated), the figure is 5 µM; as for `CC(=O)c1cnc2nc(N3CCC(N)C3)c(F)cc2c1O` (configuration not stated), 50 µM; as for `Fc1cc2c(N3CCNCC3)ccnc2nc1N1CCCC1`, > 100 µM. Still for that read-out and setting: as for `OCCNc1ccnc2nc(N3CCCC3)c(F)cc12`, the figure is 91 µM; as for `CCOC(=O)c1cnc2nc(N3CCC(N)C3)c(F)cc2c1O` (configuration not stated), 20 µM.
